From publication PMC11714206, “Massively Parallel Screening of Toll/Interleukin‐1 Receptor (TIR)‐Derived Peptides Reveals Multiple Toll‐Like Receptors (TLRs)‐Targeting Immunomodulatory Peptides” (Advanced Science, 2024)
Values joined by “and” are separate entries in the source; they are usually repeats but may differ in a detail not shown here. Identical values can stand only once. Each block holds one sequence with its values, some of them ahead of it.

Molecular target: T1, MAL^TIR (Homo sapiens, UniProt P58753)
T1 construct: MAL (residues 79–221); 6xHis; made in house; host or cells: E. coli BL21 (DE3)
T1 sequence (P58753 79-221): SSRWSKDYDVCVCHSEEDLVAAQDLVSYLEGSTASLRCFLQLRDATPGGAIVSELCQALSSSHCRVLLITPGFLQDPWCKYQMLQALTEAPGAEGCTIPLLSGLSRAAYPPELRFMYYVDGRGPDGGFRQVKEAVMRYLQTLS
Experiment: T‐Surf phage library (P8 and P3) selection against MAL^TIR, four rounds, NGS read counts
Type: binding
Conditions: for P8_MAL Rank (after) / P8_MAL Rank (before): P8 library; for P3_MAL Rank (after) / P3_MAL Rank (before): P3 library; for Population: P8_MAL pool: P8 T-Surf phage library, 4th round of selection against MAL TIR, share of NGS reads
Summary of the method: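 Read counts come from NGS of phage pools after the fourth selection round, barcoded by 20-cycle PCR and filtered for quality ≥30. Each round: phage incubated 1 h at RT on immobilised TIR protein (5 µg mL^−1, BSA-blocked), washed, HCl-eluted and amplified in E. coli TG1.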

[1] = P3_MAL: rank by count after grouping
[2] = P3_MAL: rank by count before grouping
[3] = selection against MAL, rank after grouping
[4] = selection against MAL, rank before grouping
[5] = selection against MAL, rank by count after grouping
[6] = selection against MAL, rank by count before grouping
[7] = 4R selection against MAL, rank after grouping
[8] = 4R selection against MAL, rank before grouping
[9] = selection against MAL TIR, rank by count after grouping
[10] = selection against MAL TIR, rank by count before grouping
[11] = P8_MAL: rank by count after grouping
[12] = P8_MAL: rank by count before grouping

Sequence: NQWSNSLTAAANLSGW
- Rank (after) [1]: 186
- Rank (before) [2]: 3419

Sequence: RSLRERLWRLLALSKK
- P3_MAL Rank (after) [3]: 577
- P3_MAL Rank (before) [4]: 2628

Sequence: LVFWESLKHLLRSDDR
- P8_MAL Rank (after) [7]: 636
- P8_MAL Rank (before) [8]: 2163

Sequence: YAFTGHLHQFHSWV
- Rank (after) [1]: 480
- Rank (before) [2]: 1431

Sequence: RGFLSHRRYHLQAKDH
- P3_MAL Rank (after) [3]: 539
- P3_MAL Rank (before) [4]: 2396

Sequence: SNLREGLWGLLELSKK
- P3_MAL Rank (after) [5]: 684
- P3_MAL Rank (before) [6]: 3216

Sequence: YFLHFLLFSLRKPSI
- P8_MAL Rank (after) [9]: 197
- P8_MAL Rank (before) [10]: 779

Sequence: AFLYTFLLNLTHQPTF
- P8_MAL Rank (after) [3]: 485
- P8_MAL Rank (before) [4]: 1831

Sequence: DWFREQLRPALKERLP
- Rank (after) [1]: 125
- Rank (before) [2]: 787

Sequence: YFLNFLLFSRPETDYI
- Rank (after) [11]: 457
- Rank (before) [12]: 1516

Sequence: PEKDTVRVNVIIHNIV
- Rank (after) [1]: 470
- Rank (before) [2]: 2642

Sequence: SEFIQKIILCMNQKIV
- Rank (after) [11]: 155
- Rank (before) [12]: 2458

Sequence: RNFVRICFRRWRIKA
- P8_MAL Rank (after) [5]: 687
- P8_MAL Rank (before) [6]: 2235

Sequence: HQARWNRPWAKLKPPT
- P3_MAL Rank (after) [7]: 626
- P3_MAL Rank (before) [8]: 2895

Sequence: FLNFRGLDVRNYFLA
- Rank (after) [1]: 408
- Rank (before) [2]: 1158

Sequence: PNLRTKVLSYLMRTTT
- P3_MAL Rank (after) [9]: 270
- P3_MAL Rank (before) [10]: 2674

Sequence: AFLGAQLKSVLGKPTM
- P8_MAL Rank (after) [3]: 554
- P8_MAL Rank (before) [4]: 1775

Sequence: LFFWGSLRQLLRNDDG
- P8_MAL Rank (after) [9]: 260
- P8_MAL Rank (before) [10]: 2058

Sequence: WLYERLVSLILRDTKV
- Population: 0.00402% and 0.00371%

Sequence: KDPDNYKFAIHERDFP
- P3_MAL Rank (after) [9]: 207
- P3_MAL Rank (before) [10]: 3542

Sequence: SNLRPKVLNYLMRTKI
- P3_MAL Rank (after) [3]: 531
- P3_MAL Rank (before) [4]: 1326

Sequence: KWFWDKLIYALSRNPH
- P8_MAL Rank (after) [9]: 231
- P8_MAL Rank (before) [10]: 1067

Sequence: ESILDQLRRRSQSIAN
- P3_MAL Rank (after) [7]: 591
- P3_MAL Rank (before) [8]: 2042

Sequence: NQCSNALTGAAILSGW
- P3_MAL Rank (after) [7]: 641
- P3_MAL Rank (before) [8]: 3329

The next lines start with the values.

- P8_MAL Rank (after) [3]: 528
- P8_MAL Rank (before) [4]: 2559
Sequence: TFLGHLYIAMVQAAIH

- P8_MAL Rank (after) [5]: 677
- P8_MAL Rank (before) [6]: 2165
Sequence: LRKIADLSGWTLKSFR

- P3_MAL Rank (after) [7]: 580
- P3_MAL Rank (before) [8]: 2826
Sequence: HHKGSYGEALAEDEER

- P3_MAL Rank (after) [9]: 214
- P3_MAL Rank (before) [10]: 3027
Sequence: SLFCNKLRYHLPAPQH

- Population: 0.00278%
Sequence: AFLYTFLINLAHPTNF

- P8_MAL Rank (after) [5]: 683
- P8_MAL Rank (before) [6]: 1813
Sequence: AFLYAFLKNLTHPTNF

- Rank (after) [1]: 158
- Rank (before) [2]: 727
Sequence: YAFTGHLHRFWCSVA

- Rank (after) [11]: 466
- Rank (before) [12]: 2527
Sequence: SPQEQDGFWVRLIEAL

- Rank (after) [1]: 94
- Rank (before) [2]: 94
Sequence: VRHNFIGYLRDALQHR

- Rank (after) [11]: 418
- Rank (before) [12]: 1716
Sequence: AFFWPQLKSMLRNTTV

- P8_MAL Rank (after) [3]: 569
- P8_MAL Rank (before) [4]: 2048
Sequence: ELDFSHFWLFDGEAGGEP

- Rank (after) [1]: 165
- Rank (before) [2]: 499
Sequence: FMSHLYQGLKNRGI

- Rank (after) [1]: 150
- Rank (before) [2]: 523
Sequence: YNFISHLYDALHQFHSWV

- Population: 0.00278%
Sequence: AFFWAQLKNVLGNPTM

- P3_MAL Rank (after) [5]: 706
- P3_MAL Rank (before) [6]: 2352
Sequence: RGFLCHLRHHLQATDH

- P8_MAL Rank (after) [3]: 541
- P8_MAL Rank (before) [4]: 2312
Sequence: RNLLAYLRWAVANTVI

- P8_MAL Rank (after) [5]: 685
- P8_MAL Rank (before) [6]: 2261
Sequence: RNNFFGHLYHALYRIG

- P3_MAL Rank (after) [5]: 769
- P3_MAL Rank (before) [6]: 2322
Sequence: RFWERPRYLTPSNNHR

- P3_MAL Rank (after) [7]: 616
- P3_MAL Rank (before) [8]: 2412
Sequence: RGFMSHLRHPLQAKDH

- Rank (after) [11]: 137
- Rank (before) [12]: 1458
Sequence: YFLHFLLFSRPQTQYI

- P3_MAL Rank (after) [5]: 680
- P3_MAL Rank (before) [6]: 3140
Sequence: SSFREGLWRLLGLIKK

- P8_MAL Rank (after) [3]: 561
- P8_MAL Rank (before) [4]: 1292
Sequence: WFYEPLVSVILPDTKV

- Rank (after) [11]: 386
- Rank (before) [12]: 2047
Sequence: EYRNESKFIWDIINAI

- P3_MAL Rank (after) [5]: 718
- P3_MAL Rank (before) [6]: 1894
Sequence: DWFLSKLSQHSLKLEK

- Rank (after) [11]: 166
- Rank (before) [12]: 1244
Sequence: WFYERLVKLVLRDTKV

- P3_MAL Rank (after) [5]: 722
- P3_MAL Rank (before) [6]: 1886
Sequence: DWFLSKLSQHILRHEK

- P8_MAL Rank (after) [9]: 283
- P8_MAL Rank (before) [10]: 2070
Sequence: LFFWDSLKQLMRSDGR
